# Test results: ChEMBL document CHEMBL5032530, “Discovery of Benzocyclic Sulfone Derivatives as Potent CXCR2 Antagonists for Cancer Immunotherapy” (J Med Chem, 2021)
# pIC50: −log10 of the molar value. Active and inactive are the calls of the source. The rule behind the calls is not given here.
# How the values were obtained:
# Panc02 [1] = assay: Cytotoxicity against mouse Panc02 cells assessed as reduction in cell viability measured after 72 hrs by CCK8 assay; assay type: cell-based; conditions: panc02, 72 h
# [2] = target: C-C chemokine receptor type 4 (Homo sapiens) (UniProt P51679); assay: Agonist activity against CCR4 (unknown origin) assessed as induction of beta-arrestin 2 recruitment at 10 microM by beta arrestin assay relative to control; assay type: functional
# Sequence of C-C chemokine receptor type 4 (Homo sapiens) (P51679 whole entry): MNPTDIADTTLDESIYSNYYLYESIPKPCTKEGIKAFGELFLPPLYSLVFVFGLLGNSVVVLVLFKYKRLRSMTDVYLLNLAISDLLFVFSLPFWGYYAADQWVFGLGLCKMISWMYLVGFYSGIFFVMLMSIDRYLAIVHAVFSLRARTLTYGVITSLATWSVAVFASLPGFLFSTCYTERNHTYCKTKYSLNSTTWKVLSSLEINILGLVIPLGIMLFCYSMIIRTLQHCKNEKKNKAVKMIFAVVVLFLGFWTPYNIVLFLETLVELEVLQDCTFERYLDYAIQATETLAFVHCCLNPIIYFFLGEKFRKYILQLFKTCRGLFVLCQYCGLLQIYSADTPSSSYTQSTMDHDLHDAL
# [3] = target: C-X-C chemokine receptor type 1 (Homo sapiens) (UniProt P25024); assay: Agonist activity against CXCR1 (unknown origin) assessed as induction of beta-arrestin 2 recruitment at 10 microM by beta arrestin assay relative to control; assay type: functional
# Sequence of C-X-C chemokine receptor type 1 (Homo sapiens) (P25024 whole entry): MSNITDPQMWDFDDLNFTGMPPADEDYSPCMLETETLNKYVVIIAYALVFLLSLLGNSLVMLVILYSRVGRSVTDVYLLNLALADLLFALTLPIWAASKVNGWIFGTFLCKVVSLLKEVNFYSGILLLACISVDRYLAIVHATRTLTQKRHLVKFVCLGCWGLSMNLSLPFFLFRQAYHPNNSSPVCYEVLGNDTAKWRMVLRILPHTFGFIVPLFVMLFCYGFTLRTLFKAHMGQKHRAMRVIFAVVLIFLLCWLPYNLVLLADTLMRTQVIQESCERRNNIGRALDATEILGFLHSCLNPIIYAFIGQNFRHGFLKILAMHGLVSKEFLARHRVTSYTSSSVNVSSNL
# [4] = target: C-X-C chemokine receptor type 5 (Homo sapiens) (UniProt P32302); assay: Antagonist activity against CXCR5 (unknown origin) assessed as inhibition of beta-arrestin 2 recruitment at 10 microM by beta arrestin assay relative to control; assay type: functional; set-up: scale not given: the % may be the effect or the level left
# Sequence of C-X-C chemokine receptor type 5 (Homo sapiens) (P32302 whole entry): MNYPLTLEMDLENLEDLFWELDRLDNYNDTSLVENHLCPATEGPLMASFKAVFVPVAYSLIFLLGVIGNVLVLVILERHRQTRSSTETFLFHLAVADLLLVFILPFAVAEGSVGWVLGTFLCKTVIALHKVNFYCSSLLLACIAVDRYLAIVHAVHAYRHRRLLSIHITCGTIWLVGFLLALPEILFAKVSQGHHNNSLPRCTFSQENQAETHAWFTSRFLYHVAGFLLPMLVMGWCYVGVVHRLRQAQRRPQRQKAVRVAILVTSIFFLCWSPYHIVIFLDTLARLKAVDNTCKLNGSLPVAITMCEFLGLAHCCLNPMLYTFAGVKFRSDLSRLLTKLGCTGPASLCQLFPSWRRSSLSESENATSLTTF
# Panc02 [5] = assay: Antitumour activity against mouse Panc02 cells xenografted in mouse assessed as reduction in infiltration of granulocytic MDSCs into tumor tissue at 3 mg/kg, po bid measured after 15 days by flow cytometry analysis; assay type: functional, organism-based; conditions: time 15.0 day
# [6] = target: C-C chemokine receptor type 1 (Homo sapiens) (UniProt P32246); assay: Agonist activity against CCR1 (unknown origin) assessed as induction of beta-arrestin 2 recruitment at 10 microM by beta arrestin assay relative to control; assay type: functional
# Sequence of C-C chemokine receptor type 1 (Homo sapiens) (P32246 whole entry): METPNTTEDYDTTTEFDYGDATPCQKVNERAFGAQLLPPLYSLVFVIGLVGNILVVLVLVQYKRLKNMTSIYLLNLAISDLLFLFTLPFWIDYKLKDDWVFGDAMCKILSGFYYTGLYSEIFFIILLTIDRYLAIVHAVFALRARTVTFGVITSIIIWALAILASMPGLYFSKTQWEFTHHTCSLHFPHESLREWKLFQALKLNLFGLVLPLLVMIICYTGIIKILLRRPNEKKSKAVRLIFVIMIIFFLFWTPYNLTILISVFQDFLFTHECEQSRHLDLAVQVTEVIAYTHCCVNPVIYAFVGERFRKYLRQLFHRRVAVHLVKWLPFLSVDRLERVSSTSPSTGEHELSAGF
# Neutrophil = assay: In vivo antagonist activity at CXCR2 in carrageenan-induced C57BL/6 mouse air pouch inflammation model assessed as reduction in neutrophil infiltration into air pouch at 30 mg/kg, po bid administered after 3 days of carrageenan treatment for 3 days; assay type: functional, organism-based; conditions: time 3.0 day
# Panc02 [7] = assay: Antitumour activity against mouse Panc02 cells xenografted in mouse assessed as tumour growth inhibition at 30 mg/kg, po bid […]; assay type: functional; conditions: read-out: TGI
# [8] = AUC (0 to infinity) in ICR mouse at 3 mg/kg, iv measured upto 48 hrs; assay type: ADME, organism-based; set-up: route intravenous, dose 3 mg/kg, time <=48; conditions: in vivo
# [9] = target: CX3C chemokine receptor 1 (Homo sapiens) (UniProt P49238); assay: Agonist activity against CX3CR1 (unknown origin) assessed as induction of beta-arrestin 2 recruitment at 10 microM by beta arrestin assay relative to control; assay type: functional
# Sequence of CX3C chemokine receptor 1 (Homo sapiens) (P49238 whole entry): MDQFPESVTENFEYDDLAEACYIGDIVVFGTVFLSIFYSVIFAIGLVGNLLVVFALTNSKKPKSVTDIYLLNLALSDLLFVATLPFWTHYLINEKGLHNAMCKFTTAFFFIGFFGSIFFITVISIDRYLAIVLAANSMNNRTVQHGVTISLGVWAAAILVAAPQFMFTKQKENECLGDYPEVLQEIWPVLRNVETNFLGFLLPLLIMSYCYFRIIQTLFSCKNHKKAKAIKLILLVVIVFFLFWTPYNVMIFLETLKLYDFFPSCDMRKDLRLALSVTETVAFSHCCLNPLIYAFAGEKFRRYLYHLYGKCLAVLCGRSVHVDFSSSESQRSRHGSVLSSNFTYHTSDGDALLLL
# [10] = target: Chemerin-like receptor 1 (Homo sapiens) (UniProt Q99788); assay: Agonist activity against CMKLR1 (unknown origin) assessed as induction of beta-arrestin 2 recruitment at 10 microM by beta arrestin assay relative to control; assay type: functional
# Sequence of Chemerin-like receptor 1 (Homo sapiens) (Q99788 whole entry): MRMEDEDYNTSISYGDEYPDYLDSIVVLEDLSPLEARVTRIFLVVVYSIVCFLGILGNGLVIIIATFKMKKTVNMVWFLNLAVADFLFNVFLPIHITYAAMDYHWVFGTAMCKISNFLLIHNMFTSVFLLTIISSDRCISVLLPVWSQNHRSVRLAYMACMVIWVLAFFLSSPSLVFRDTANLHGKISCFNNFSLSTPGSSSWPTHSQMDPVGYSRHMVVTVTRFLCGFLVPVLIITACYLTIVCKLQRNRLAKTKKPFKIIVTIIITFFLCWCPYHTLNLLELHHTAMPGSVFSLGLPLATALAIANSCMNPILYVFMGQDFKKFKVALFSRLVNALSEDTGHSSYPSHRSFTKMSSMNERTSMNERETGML
# [11] = Tmax in ICR mouse at 30 mg/kg, po measured upto 48 hrs; assay type: ADME, organism-based; conditions: in vivo
# [12] = target: C-C chemokine receptor type 4 (Homo sapiens) (UniProt P51679); assay: Antagonist activity against CCR4 (unknown origin) assessed as inhibition of beta-arrestin 2 recruitment at 10 microM by beta arrestin assay relative to control; assay type: functional; set-up: scale not given: the % may be the effect or the level left
# [13] = Clearance in ICR mouse at 30 mg/kg, po measured upto 48 hrs; assay type: ADME, organism-based; conditions: ICR, in vivo
# [14] = target: C-X-C chemokine receptor type 6 (Homo sapiens) (UniProt O00574); assay: Agonist activity against CXCR6 (unknown origin) assessed as induction of beta-arrestin 2 recruitment at 10 microM by beta arrestin assay relative to control; assay type: functional
# [15] = target: C-C chemokine receptor type 10 (Homo sapiens) (UniProt P46092); assay: Agonist activity against CCR10 (unknown origin) assessed as induction of beta-arrestin 2 recruitment at 10 microM by beta arrestin assay relative to control; assay type: functional
# Sequence of C-C chemokine receptor type 10 (Homo sapiens) (P46092 whole entry): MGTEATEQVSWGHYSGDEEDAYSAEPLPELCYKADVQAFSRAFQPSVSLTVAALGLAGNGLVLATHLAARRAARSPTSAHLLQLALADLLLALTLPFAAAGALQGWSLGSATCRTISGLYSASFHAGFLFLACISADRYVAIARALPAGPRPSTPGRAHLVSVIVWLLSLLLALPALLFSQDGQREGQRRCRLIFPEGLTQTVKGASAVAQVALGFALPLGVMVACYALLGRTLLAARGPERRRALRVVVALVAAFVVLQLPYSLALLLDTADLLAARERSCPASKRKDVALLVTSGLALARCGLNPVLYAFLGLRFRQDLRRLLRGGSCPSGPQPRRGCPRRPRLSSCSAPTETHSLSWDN
# SW1990 = assay: Cytotoxicity against human SW1990 cells assessed as reduction in cell viability measured after 72 hrs by CCK8 assay; assay type: cell-based; conditions: SW1990, 72 h
# [16] = target: C-X-C chemokine receptor type 3 (Homo sapiens) (UniProt P49682); assay: Agonist activity against CXCR3 (unknown origin) assessed as induction of beta-arrestin 2 recruitment at 10 microM by beta arrestin assay relative to control; assay type: functional
# Sequence of C-X-C chemokine receptor type 3 (Homo sapiens) (P49682 whole entry): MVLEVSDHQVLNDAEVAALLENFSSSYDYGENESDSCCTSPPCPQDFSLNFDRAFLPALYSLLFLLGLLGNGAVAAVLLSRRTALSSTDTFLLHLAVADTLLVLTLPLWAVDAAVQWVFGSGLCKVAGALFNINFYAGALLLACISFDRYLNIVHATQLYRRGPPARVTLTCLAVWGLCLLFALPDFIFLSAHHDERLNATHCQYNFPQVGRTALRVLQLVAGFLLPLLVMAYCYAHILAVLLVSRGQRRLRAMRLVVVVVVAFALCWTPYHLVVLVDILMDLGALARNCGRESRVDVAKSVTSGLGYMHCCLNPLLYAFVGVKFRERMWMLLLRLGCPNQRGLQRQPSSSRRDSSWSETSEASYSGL
# [17] = Tmax in ICR mouse at 3 mg/kg, iv measured upto 48 hrs; assay type: ADME, organism-based; conditions: in vivo
# Panc02 [18] = assay: Antitumour activity against mouse Panc02 cells xenografted in mouse assessed as change in Gr1 expressing immune cells infiltration into tumor tissue at 10 mg/kg, po bid measured after 15 days by flow cytometry analysis (reference value: 27.4%); assay type: functional; conditions: time 15 day
# [19] = target: Atypical chemokine receptor 3 (Homo sapiens) (UniProt P25106); assay: Agonist activity against CXCR7 (unknown origin) assessed as induction of beta-arrestin 2 recruitment at 10 microM by beta arrestin assay relative to control; assay type: functional
# Sequence of Atypical chemokine receptor 3 (Homo sapiens) (P25106 whole entry): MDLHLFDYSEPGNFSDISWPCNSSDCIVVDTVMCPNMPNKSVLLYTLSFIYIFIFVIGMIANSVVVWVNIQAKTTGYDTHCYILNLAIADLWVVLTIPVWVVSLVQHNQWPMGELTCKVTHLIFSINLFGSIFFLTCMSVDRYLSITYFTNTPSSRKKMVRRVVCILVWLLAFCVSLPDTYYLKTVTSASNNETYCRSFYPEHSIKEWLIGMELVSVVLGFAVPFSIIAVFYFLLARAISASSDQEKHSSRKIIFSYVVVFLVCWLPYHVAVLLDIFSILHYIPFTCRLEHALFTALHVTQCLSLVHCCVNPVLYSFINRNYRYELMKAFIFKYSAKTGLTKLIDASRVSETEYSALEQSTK
# Panc02 [20] = assay: Antitumour activity against mouse Panc02 cells xenografted in mouse assessed as upregulation of infiltration of CD3+ T cell into tumor tissue treated po twice a day measured after 15 days by immunohistochemical analysis; assay type: functional, organism-based; conditions: dose 10-30 mg/kg, time 15.0 day
# [21] = target: C-C chemokine receptor type 9 (Homo sapiens) (UniProt P51686); assay: Antagonist activity against CCR9 (unknown origin) assessed as inhibition of beta-arrestin 2 recruitment at 10 microM by beta arrestin assay relative to control; assay type: functional; set-up: scale not given: the % may be the effect or the level left
# Sequence of C-C chemokine receptor type 9 (Homo sapiens) (P51686 whole entry): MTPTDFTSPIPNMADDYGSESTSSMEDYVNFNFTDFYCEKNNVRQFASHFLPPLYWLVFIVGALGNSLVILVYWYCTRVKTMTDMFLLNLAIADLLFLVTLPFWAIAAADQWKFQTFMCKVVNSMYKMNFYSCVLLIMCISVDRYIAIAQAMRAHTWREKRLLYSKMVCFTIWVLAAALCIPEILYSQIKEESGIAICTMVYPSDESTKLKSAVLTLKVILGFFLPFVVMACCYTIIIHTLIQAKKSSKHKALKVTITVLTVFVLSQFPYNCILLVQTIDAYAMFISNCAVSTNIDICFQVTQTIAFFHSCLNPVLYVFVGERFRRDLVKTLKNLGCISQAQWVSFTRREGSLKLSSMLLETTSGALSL
# MIA PaCa-2 = assay: Cytotoxicity against human MIA PaCa-2 cells assessed as reduction in cell viability measured after 72 hrs by CCK8 assay; assay type: cell-based; conditions: MIA PaCa-2, 72 h
# [22] = target: C-X-C chemokine receptor type 4 (Homo sapiens) (UniProt P61073); assay: Agonist activity against CXCR4 (unknown origin) assessed as induction of beta-arrestin 2 recruitment at 10 microM by beta arrestin assay relative to control; assay type: functional
# Sequence of C-X-C chemokine receptor type 4 (Homo sapiens) (P61073 whole entry): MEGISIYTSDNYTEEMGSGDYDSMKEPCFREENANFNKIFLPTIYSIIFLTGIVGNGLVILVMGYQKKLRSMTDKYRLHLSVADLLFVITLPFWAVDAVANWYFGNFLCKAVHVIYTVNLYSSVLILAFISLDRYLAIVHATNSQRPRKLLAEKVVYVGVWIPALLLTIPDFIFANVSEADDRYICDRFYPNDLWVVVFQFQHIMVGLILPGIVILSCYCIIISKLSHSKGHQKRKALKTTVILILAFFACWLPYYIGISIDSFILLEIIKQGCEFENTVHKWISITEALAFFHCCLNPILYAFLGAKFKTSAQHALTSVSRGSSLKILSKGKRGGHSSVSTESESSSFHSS
# [23] = AUC (0 to t) in ICR mouse at 3 mg/kg, iv measured upto 48 hrs; assay type: ADME, organism-based; set-up: route intravenous, dose 3 mg/kg, time <=48; conditions: in vivo
# [24] = target: C-C chemokine receptor type 5 (Homo sapiens) (UniProt P51681); assay: Agonist activity against CCR5 (unknown origin) assessed as induction of beta-arrestin 2 recruitment at 10 microM by beta arrestin assay relative to control; assay type: functional
# Sequence of C-C chemokine receptor type 5 (Homo sapiens) (P51681 whole entry, looked up): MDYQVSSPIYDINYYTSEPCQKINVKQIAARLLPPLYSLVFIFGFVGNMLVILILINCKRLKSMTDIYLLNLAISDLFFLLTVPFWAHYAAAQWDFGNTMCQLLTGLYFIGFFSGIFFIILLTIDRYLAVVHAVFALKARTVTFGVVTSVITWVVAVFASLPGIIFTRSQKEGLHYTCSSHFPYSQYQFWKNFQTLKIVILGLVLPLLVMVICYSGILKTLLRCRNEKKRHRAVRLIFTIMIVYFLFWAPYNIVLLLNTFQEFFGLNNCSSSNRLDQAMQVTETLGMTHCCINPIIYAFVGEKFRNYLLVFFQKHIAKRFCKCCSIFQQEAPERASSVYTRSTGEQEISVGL
# [25] = target: Chemerin-like receptor 1 (Homo sapiens) (UniProt Q99788); assay: Antagonist activity against CMKLR1 (unknown origin) assessed as inhibition of beta-arrestin 2 recruitment at 10 microM by beta arrestin assay relative to control; assay type: functional; set-up: scale not given: the % may be the effect or the level left
# [26] = target: C-C chemokine receptor type 7 (Homo sapiens) (UniProt P32248); assay: Agonist activity against CCR7 (unknown origin) assessed as induction of beta-arrestin 2 recruitment at 10 microM by beta arrestin assay relative to control; assay type: functional
# Sequence of C-C chemokine receptor type 7 (Homo sapiens) (P32248 whole entry): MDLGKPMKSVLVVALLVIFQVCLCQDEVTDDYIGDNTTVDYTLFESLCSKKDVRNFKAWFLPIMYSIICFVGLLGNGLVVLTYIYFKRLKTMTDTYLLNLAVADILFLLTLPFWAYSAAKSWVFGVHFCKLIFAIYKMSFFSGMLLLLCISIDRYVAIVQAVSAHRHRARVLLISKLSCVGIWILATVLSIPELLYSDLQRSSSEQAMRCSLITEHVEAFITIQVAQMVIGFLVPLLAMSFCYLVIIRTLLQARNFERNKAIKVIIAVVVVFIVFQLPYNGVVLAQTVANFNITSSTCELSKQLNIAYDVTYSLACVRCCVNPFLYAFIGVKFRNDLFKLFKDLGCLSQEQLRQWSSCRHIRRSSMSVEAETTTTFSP
# Panc02 [27] = assay: Antitumour activity against mouse Panc02 cells xenografted in mouse assessed as reduction in infiltration of granulocytic MDSCs into tumor tissue at 30 mg/kg, po bid measured after 15 days by immunohistochemical analysis; assay type: functional, organism-based; conditions: time 15.0 day
# [28] = Cmax in ICR mouse at 30 mg/kg, po measured upto 48 hrs; assay type: ADME, organism-based; set-up: route oral, dose 30 mg/kg, time <=48; conditions: in vivo
smiles,measurement,setting,value
Cc1c(F)cccc1NC(=O)Nc1ccc2c(c1O)S(=O)(=O)CCC2,Activity,Panc02 [1],Non-Toxic
same,Activity,[2],< 10%
same,Activity,[3],< 10%
same,Activity,[4],11%
same,Activity,Panc02 [5],Active
same,Activity,[6],< 10%
same,Activity,Neutrophil,Active
same,inhibition in vivo at 30 mg/kg,Panc02 [7],61.4%
same,AUC(0-inf),[8],365 ng·h/mL
same,Activity,[9],< 10%
same,Activity,[10],< 10%
same,Tmax,[11],84.6 min
same,Activity,[12],10%
same,CL/F,[13],2190 mL/min/kg
same,Activity,[14],< 10%
same,Activity,[15],< 10%
same,pIC50,SW1990,< 5.00
same,Activity,[16],< 10%
same,Tmax,[17],1.8 min
same,Activity,Panc02 [18],11.2%
same,Activity,[19],< 10%
same,Activity,Panc02 [20],Dose-Dependent Effect
same,Activity,[21],14%
same,pIC50,MIA PaCa-2,< 5.00
same,Activity,[22],< 10%
same,AUC(0-t) at 48 h,[23],357 ng·h/mL
same,Activity,[24],< 10%
same,Activity,[25],< 10%
same,Activity,[26],< 10%
same,Activity,Panc02 [27],Active
same,Cmax,[28],19 ng/mL
